Assays:
HCT116 cells [1] = assay: HCT116 Matrigel invasion assay; type: cell-based; settings: after 24 h; 9 at multiple concentrations; 32 at 50 nM and 500 nM
Method: Figure 5 HCT116 cells were treated with 9 or 32 at the indicated concentrations and plated on Matrigel®‐coated filters. The upper chamber contained serum‐free medium, while the lower chamber contained 10 % fetal bovine serum. After 24 h, the number of invading cells was measured optically. (A) This figure is one representative example of four biological replicates, each with similar outcomes. Error bars are SEM. Technical replicates: DMSO and 9 at 5 nM (n=3); 9 at 50 and 500 nM and 32 at all concentrations (n=6). Statistical significance was calculated using an unpaired two‐tailed t‐test. n.s=p≥0.05; **=p<0.01; ***=p<0.001. (B) Representative images (Scale bar, […]) of stained invaded cells outside of the inserts 24 h hours after treatment with 9, 32, or DMSO solvent control at the indicated concentrations. Phase contrast images were taken with EVOS FL Cell imagine system FL Auto microscope (Bio‐Rad).
Invasion assay: The HCT116 colorectal adenocarcinoma cell line (ATCC® CCL‐247™) was maintained in Dulbecco's Modified Eagle Medium (DMEM) with […] glucose, L‐glutamine w/o sodium pyruvate, supplemented with 10 % FBS and 1 % penicillin/streptomycin. […] The samples were transferred to a new 96 well plate and read at 560 nm on a Synergy 2 Multi‐Detection Microplate Reader (Bio‐Tek Instruments, Inc., Winooski, VT).

HCT116 cells [2] = assay: HCT116 cell growth and viability; type: cell-based; settings: at the tested concentrations (data not shown)
Excerpt: We have previously shown that knockdown of KLK6 reduces migration and invasion of HCT116 cells in vitro.13 In order to test whether this effect could be recapitulated with small molecule KLK6 inhibitors, we measured the ability of 32 to reduce invasion of HCT116 cells. […] HCT116 cell growth and viability was not altered upon treatment with compounds 9 and 32 at the tested concentrations (data not shown).

[3] = Microsomal intrinsic clearance, human microsomes; type: in vitro ADME
Method: Immediately, at time zero, then at 3, 6, 9, 15 and 30 min an aliquot (50 μL) of the incubation mixture was removed and mixed with acetonitrile (100 μL) to stop the reaction. Internal standard was added to all samples, the samples centrifuged to sediment precipitated protein and the plates then sealed prior to UPLC‐MS/MS analysis using a Quattro Premier XE (Waters Corporation, USA). XLfit (IDBS, UK) was used to calculate the exponential decay and consequently the rate constant (k) from the ratio of peak area of test compound to internal standard at each timepoint. The rate of intrinsic clearance (CLint) of each test compound was then calculated using the following calculation: CLint (mL/min/g liver)=k×V×Microsomal protein yield. Where V (mL/mg protein) is the incubation volume/mg protein added and microsomal protein yield is taken as 52.5 mg protein/g liver. Verapamil (0.5 μM) was used as a positive control to confirm acceptable assay performance.

KLK8 = molecular target: T1, KLK8 (Homo sapiens, UniProt O60259); assay: KLK8 enzyme inhibition assay; type: biochemical; settings: read-out: KLK8 pIC50 (converted)
T1 construct: purchased 2B scientific
T1 sequence (O60259 33-260): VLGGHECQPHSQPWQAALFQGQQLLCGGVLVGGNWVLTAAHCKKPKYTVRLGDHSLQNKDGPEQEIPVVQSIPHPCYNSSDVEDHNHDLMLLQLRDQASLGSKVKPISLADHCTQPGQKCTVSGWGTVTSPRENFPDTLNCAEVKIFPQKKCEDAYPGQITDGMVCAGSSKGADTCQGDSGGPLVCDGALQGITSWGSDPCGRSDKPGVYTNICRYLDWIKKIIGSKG
Method: Enzyme inhibition assays: All chemicals were purchased from Sigma Aldrich (Gillingham, UK) unless otherwise stated. All experiments were conducted in 384 well black, low volume microplates (Greiner 784076) with a final volume of 20 μL and compounds were dispensed into assay plates using an ECHO 550 acoustic dispenser (Labcyte). KLK6 (5 nM) (prepared as in ref. 21) was incubated with test compounds for 30 min at room temperature in assay buffer (50 mM Tris, pH 7.5, 150 mM NaCl, 1 mM EDTA, 0.05 % tween 20, 0.1 % bovine serum albumin (BSA), 1 mM dithiothreitol (DTT)) before the reaction was started by addition of 20 μM Boc‐Phe‐Ser‐Arg‐AMC substrate (Bachem). Fluorescence intensity was read at ex/em 355/460 following incubation for 2 h in the dark at room temperature.
Assays using KLK7 and KLK8 (2B scientific) were conducted in the same manner as for KLK6 with the following exceptions. Both KLK7 and KLK8 required activation before assaying. KLK7 was combined with an equal volume of 20 μg/ml thermolysin (R&D systems) in activation buffer (50 mM Tris, pH 7.5, 10 mM CaCl2, 150 mM NaCl and 0.05 % Brij‐L23) and incubated at 37 °C for 2 h, the reaction was stopped with the addition of 100 mM EDTA in stop solution (50 mM Tris, 150 mM NaCl, pH 8.5). KLK8 was combined with an equal volume of 0.4 mU/mL lysyl endopeptidase (Alpha laboratories) in activation buffer (50 mM Tris, pH 8.0) and incubated at 37 °C for 30 min. Activated KLK7 (40 nM) and KLK8 (25 nM) were assayed with 40 μM Mca‐RPKPVE‐Nval‐WRK(Dnp)‐NH2 fluorogenic MMP substrate (R&D systems) and 25 μM Boc‐V‐P‐R‐AMC substrate (R&D systems), respectively.

With CC[C@H](NC(=O)[C@H]1CN(c2ccc(C(=N)N)cc2)C(=O)O1)c1cccc2ccccc12 [Compound 32, (5R)‐3‐(4‐carbamimidoylphenyl)‐N‐((S)‐1‐(naphthalen‐1‐yl)propyl)‐2‐oxooxazolidine‐5‐carboxamide] the “invasion of HCT116 cells” value (HCT116 cells [1]) was “significant reduction in invasion”, the “HCT116 cell growth and viability” value (HCT116 cells [2]) was “not altered” and the “Human CLint” value [3] was 3.1 mL/min/g. It also gave an IC50 (KLK8) of 0.2 µM.

Reference: paper PMC7004151, “Synthesis and Structure‐Activity Relationships of N‐(4‐Benzamidino)‐Oxazolidinones: Potent and Selective Inhibitors of Kallikrein‐Related Peptidase 6” (Chemmedchem, 2019)
